Results on 21 molecules are retold here after PubChem BioAssay (NCI).

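48-hour exposure; five concentrations; linearly interpolated endpoints. GI50 = concentration required for 50% inhibition of growth. TGI: total growth inhibition.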

What all share (assay): growth of human tumour cells (NCI), 48 h
The test system of test [1] is UACC-257 melanoma.
For test [2], the system named is SF-539 CNS.
Test [3] has as its system UO-31 renal.
The subject of test [4] is SN12C renal.
Test [5] concerns LOX IMVI melanoma.
Test [6] concerns RXF 393 renal.
Test [7] deals with SF-295 CNS.
Test [8] relates to TK-10 renal.
Test [9] has as its system MDA-MB-435.
Test [10] has as its system MDA-MB-231 breast.
Test [11] relates to BT-549 breast.

As to `N/C(=N\N=C\c1ccc2c(c1)OCCO2)NO`, the TGI is over 61.2 µM in test [1]; over 81.1 µM in test [2]; over 53 µM in test [3]; over 100 µM in test [4]; over 72.7 µM in [5]; over 100 µM in test [6]. Moreover, the TGI in test [7] was 57.1 µM.
Take `O=C1c2ccc(O)c(O)c2C(=O)c2c(O)ccc(O)c21`: the TGI is 49.3 µM in [1]; over 100 µM in test [8]; 49.2 µM in test [2]; 42.8 µM in test [3]; 56.7 µM in test [4]; 44.3 µM in [5]. The TGI worked out at 55.2 µM in test [6] and 78.5 µM in test [7].
For `COc1ccc(/C=C2\CCC(C)C3=C2N=c2s/c(=C/c4cccc(Br)c4)c(=O)n2C3c2ccc(OC)c(OC)c2)cc1OC` (stereo not drawn), the TGI in test [1], in [8], in [4], in test [5], in test [9] and in [10] was over 100 µM throughout. This molecule showed a TGI in [6] of over 100 µM.
Regarding `O=C1c2ccccc2C(=O)N1CC(O)COc1cccc2ccccc12` (stereo not drawn), the TGI in test [1], in test [8], in [3], in test [5], in [9] and in test [10] was over 100 µM in each case. Besides, the TGI in [7] is over 100 µM.
Regarding `Cc1ccc(S(=O)(=O)N2CCCSCC2)cc1`, the TGI in [1], in test [8], in test [3], in [4], in [5] and in test [9] was over 100 µM in each case. Further, the TGI in [10], in [6] and in test [7] was over 100 µM each time.
As for `Cc1cc(=O)oc2c(CNC(Cc3ccccc3)C(=O)O)c(O)ccc12` (stereo not drawn), the TGI in test [1], in test [8], in [2], in test [3], in test [4] and in test [5] was over 100 µM throughout. Also, the TGI in [9], in test [10], in test [6] and in test [7] was over 100 µM throughout.
Take `CC1=C(C)Cc2c(O)ccc(O)c2C1`: the TGI in test [1] was 32.2 µM; in test [8], 36.9 µM; in test [2], 35.1 µM; in test [3], 30.6 µM; in test [4], 45.8 µM; in test [5], 46.7 µM. Moreover, the TGI in [9] was 30.5 µM; in test [10] it was 44.1 µM; in [6], 30 µM; in [7], over 100 µM.
In the case of `CCOC(=O)c1ccc(N=c2sc3ccccc3nc2Nc2ccc(C(=O)OCC)cc2)cc1`, the TGI in test [1], in test [8], in test [2], in test [3], in test [4] and in test [5] was over 100 µM in each case. The TGI in test [9], in test [10], in test [6] and in test [7] was over 100 µM in each case.
For the molecule `C(=C\c1ccco1)/c1cccc(/C=C/c2ccco2)n1`, the TGI in test [1], in test [8], in [2], in test [3], in test [4] and in test [5] was over 50 µM in each case. Besides, the TGI in [9], in test [11], in [6] and in test [7] was over 50 µM in each case.
Regarding `COc1cc2c(cc1OCCCC(=O)Nc1ccc3ccc4cccc5ccc1c3c45)N=C[C@@H]1CCCN1C2=O`, the GI50 in [1] is 0.0368 µM; in test [8], 0.0384 µM; in test [2] it was under 0.01 µM; in test [3], under 0.0158 µM; in test [4], under 0.0136 µM; in [5], 0.0143 µM. The GI50 in test [9] was 1.61 µM; in [10] it was 0.0135 µM; in test [7] it was 0.217 µM. Further, the TGI in test [1] was 0.104 µM; in test [8], 0.237 µM; in test [2], under 0.01 µM; in [4], 0.0423 µM; in test [5] it was over 100 µM; in test [9] it was 3.07 µM. The TGI in test [10] stood at 0.051 µM; in test [7] it was 1.08 µM.
Regarding `Nc1nc2c3nc(Nc4ccccc4)sc3nc(=O)n2c2sc(Nc3ccccc3)nc12`, the TGI in test [1], in [2], in test [3], in [4], in [6] and in test [7] was over 100 µM in each case.
Turning to `C=C(C)[C@@H]1CCC2=C[C@H](OC2=O)[C@@]2(C)C[C@@H]2C2=CC(C)=C(O2)[C@H]1O`, the TGI in test [1], in test [8], in test [2], in test [3], in test [4] and in test [5] was over 75 µM throughout. Also, the TGI in [9], in test [10], in [6] and in test [7] was over 75 µM each time.
For `CC1(C)CCC[C@]2(C)[C@H]3[C@H](C#N)c4cc(O)c(O)cc4O[C@@]3(C)CC[C@@H]12`, the TGI in test [1], in test [8], in [2], in [3], in test [4] and in test [5] was over 10 µM in each case. Besides, the TGI in [10], in test [6] and in test [7] was over 10 µM each time.
Turning to `OC(c1cc(C23CC4CC(CC(C4)C2)C3)nc2c(Cl)cc(Cl)cc12)C1CCCCN1` (stereo not drawn), the TGI in [1] was 3.53 µM; in [8] it was 3.23 µM; in test [2] it was 3.22 µM; in [3], 2.35 µM; in [4], 3.13 µM; in test [10], 2.78 µM. Further, the TGI in [6] was 3.07 µM; in [7], 3.76 µM.
Regarding `COc1cc(/C=c2\sc3n(c2=O)C(c2ccc(Cl)cc2)C2=C(CCCC2C)N=3)cc(OC)c1OC` (stereo not drawn), the TGI in test [1], in [8], in test [3], in [4], in [5] and in test [9] was over 100 µM throughout. Moreover, the TGI in [10] and in test [6] was over 100 µM throughout.
Take `CC(=O)O[C@H]1C(=O)[C@@]2(C)C(C(OC(=O)c3ccccc3)C3[C@@H](O)C(OC(=O)[C@@H](O)[C@H](NC(=O)c4ccccc4)c4ccc(C(F)(F)F)cc4)C(C)=C1C3(C)C)[C@]1(OC(C)=O)CO[C@@H]1C[C@@H]2O` (stereo partly drawn): the TGI in test [1], in test [8], in [2], in test [3], in test [4] and in test [5] was over 25 µM throughout. Further, the TGI in [6] and in test [7] was over 25 µM throughout.
Consider `C=C(Br)CNC(=O)CCC(=O)NCC(=C)Br`, for which the TGI in [1], in test [8], in test [2], in test [3], in [4] and in [5] was over 100 µM throughout. Besides, the TGI in test [9], in [10], in test [6] and in [7] was over 100 µM throughout.
Regarding `Cc1cc2c([nH]c3ccccc32)c2c1OC(C)(C)C1C3CC(C)(C)Oc4c(C)cc5c6ccccc6n(c5c43)C21` (stereo not drawn), the TGI in [1], in test [8], in test [2], in test [3], in [4] and in test [5] was over 100 µM throughout. Also, the TGI in [6] and in test [7] was over 100 µM each time.
As for `CC(C)/C(Cl)=N\OC(=O)Nc1cccc(Cl)c1`, the TGI worked out at 26.8 µM in [1]; 28.6 µM in [8]; 36.8 µM in test [2]; 33.3 µM in test [3]; 32.4 µM in test [4]; 8.71 µM in test [5]. The TGI in test [10] is 30.3 µM; in test [6], 32.5 µM; in test [7], over 58.9 µM.
Take `C=C1CCC([N+](=O)[O-])[C@](C)(N=O)CC[C@@H]2C1CC2(C)C` (stereo partly drawn): the TGI was 46.2 µM in test [1]; 76.1 µM in test [8]; 31.7 µM in [3]; over 100 µM in [4]; 41.7 µM in [5]; 37.1 µM in test [11]. Further, the TGI in test [7] is 37.6 µM.
For the molecule `O=C1CC(c2ccccc2)n2cccc21` (stereo not drawn), the TGI in test [1], in test [8], in [2], in [3], in [4] and in test [5] was over 100 µM each time. The TGI in test [9], in [10], in test [6] and in test [7] was over 100 µM throughout.
